In PubChem BioAssay AID504882 (Broad Institute, 2011):
Results filed as inconclusive are left out. Calls of active or inactive are those of the source. No rule for the calls is given here.

Test system: EBV lymphoblastoid cells (LCL) viability, plate reader
Assay: cytotoxicity in EBV lymphoblastoid cells, dose response, cytotoxicity control, cell-based, plate reader, cherry-picks, set 2 (AID 504882)

Compound | AC50
CC(=O)Nc1nc(C)c(-c2csc(Nc3ccc(O)cc3)n2)s1 | 19.4 µM
O=C(Nc1nc(-c2ccccn2)cs1)c1ccc(Br)s1 | 1.29 µM
Cc1cccc(-n2ncc(Cl)c(Cl)c2=O)c1 | 1.59 µM
CCN(CC)c1ccc(/C=N/NC(=O)c2c(Cl)cnn2C)c(O)c1 | 3.19 µM
CCOc1ccc(/C=C/[N+](=O)[O-])c2ccccc12 | 1.92 µM
C=C(C(=O)c1ccccc1)C(CC(=O)c1ccccc1)c1ccccc1 (configuration not stated) | 3.79 µM
C/C(=N/NC(=O)c1ccc(C(C)(C)C)cc1)c1ccccn1 | 1.05 µM
C#Cc1cc(N2CCN(C(=O)c3ccoc3)CC2)n2nc(-c3cccc(Cl)c3)cc2n1 | 10.4 µM
S=C(NCCCN1CCOCC1)N1CCN(c2nc(-c3ccc(Cl)cc3)cs2)CC1 | 12.9 µM
Cn1nnnc1N=N/C(=N/Nc1ccccc1)c1ccccc1 | 1.71 µM
CC(C)CC(=NNC(=O)c1ccncc1)c1cc(Cl)ccc1O | 3.19 µM
CCCc1cc(=O)n2[nH]cc(-c3ccc(Cl)cc3)c2n1 | 8.45 µM
O=S(=O)(c1ccc2c(c1)C(=NO)c1cc(S(=O)(=O)N3CCCCC3)ccc1-2)N1CCCCC1 | 1.2 µM
CC(=NNC(=S)N1CCCCCC1)c1ccccn1 | 0.354 µM
C(=N\Nc1nc2ccccc2[nH]1)/c1cccc2cccnc12 | 1.06 µM
COc1ccc(O)c(/C=N/Nc2nc(Nc3ccccc3)nc(-n3nc(C)cc3C)n2)c1 | 10.7 µM
NC(=S)NN=Cc1nccc2c(N)cccc12 | 1.04 µM
NC(Cc1ccc(O)cc1)C(=O)NN=Cc1ccc(N(CCCl)CCCl)cc1 (configuration not stated) | 0.983 µM
NC(=S)NN=Cc1nccc2c(C(F)(F)F)cccc12 | 1.15 µM
CCN1CCN(Cc2ccc(NC(=O)c3ccc(C)c(/C=C/c4cnc(Nc5cc(N6CCNCC6)nc(C)n5)cn4)c3)cc2C(F)(F)F)CC1 | 9.23 µM
CCN(CC)CCC(=O)N1C/C(=C/c2ccccc2)C(=O)/C(=C\c2ccccc2)C1 | 1.36 µM
COc1cccc(/C=N/Nc2nc3ccccc3[nH]2)c1O | 4.42 µM
Cc1onc(-c2ccccc2)c1C(=O)NC(=S)NNC(=O)c1ccc(O)cc1O | > 19.5 µM (inactive)
COc1ccc(-c2[nH]ncc2-c2ccc3c(c2)OCCO3)c(O)c1 | > 19.5 µM (inactive)

Compound | AC50
Cc1cc(S(=O)(=O)c2ccc(Cl)cc2)nc(S(=O)(=O)c2ccc(Cl)cc2)c1C#N | 0.855 µM
O=c1cc(-c2ccccc2)oc2ccc3ccccc3c12 | 8.53 µM
Nc1ccn([C@@H]2O[C@H](CO)[C@@H](O)[C@@H]2O)c(=O)n1 | 0.748 µM
c1ccc(C2=NNC(=NC3CC3)SC2)cc1 | 11.9 µM
CCOc1ccc(C(=O)Nc2cc(C)ccn2)cc1 | 9.64 µM
C/C(=N\NC(=O)c1cccc(Br)c1)c1ccccn1 | 0.803 µM
Oc1ccc(C=NNC(=S)Nc2ccccc2)nc1 | 13 µM
CCN(CC)c1ccc(/C=N/Nc2nc3ccccc3[nH]2)c(O)c1 | 2.74 µM
N#Cc1ccc(-c2csc(NNC(=O)c3ccc(Br)cc3)n2)cc1 | 5.38 µM
CCOc1ccc(C(C)=O)cc1COc1cccnc1[N+](=O)[O-] | > 19.5 µM (inactive)
COc1cc(C(=O)Oc2ccccc2/C=N/NC(=O)c2ccc(C)c(Cl)c2)cc(OC)c1OC | 12.7 µM
CCOC(=O)c1c(CSc2nc(C)cc(C)c2C#N)n(C)c2cc(Br)c(OC(C)=O)cc12 | 14.6 µM
CCC(=O)NC(c1cc(Cl)c2cccnc2c1O)C1CC1 (configuration not stated) | 6.08 µM
CCCCC(=O)NC(c1ccc(Cl)cc1)c1ccc2cccnc2c1O (configuration not stated) | 3.65 µM
CN=C1S/C(=C\c2ccc(O)c(Br)c2)C(=O)N1C | > 19.5 µM (inactive)
Nc1ccc(C(=O)N/N=C\c2cc(N=Nc3cccc4ccccc34)ccc2O)cc1 | 10.7 µM
Cc1[nH]n(-c2ccccc2)c(=O)c1/C=N/Nc1nncc(-c2ccccc2)n1 | 0.83 µM
O=C(c1cccc(F)c1)N1CCN(c2cccc(Cl)c2)CC1 | 3.11 µM
O=C(N/N=C/c1c(O)ccc2ccccc12)c1cccnc1 | 10.5 µM
CC(=NNC(=S)N1CC2CCC(CC2)C1)c1nccs1 | 0.362 µM
COc1cccc(/C=N/Nc2ncnc(Cl)c2N)c1O | 3.73 µM
Cc1ccc(C(=O)Nc2sc(Cc3ccc4c(c3)OCO4)c(C)c2C(N)=O)cc1 | 19.2 µM
CC(=O)NC(c1ccc(Cl)cc1)c1ccc2cccnc2c1O (configuration not stated) | 1.21 µM
Cn1c(/C=C/c2ccccc2)nc2ccccc21 | 13.9 µM

Compound | AC50
O=C1C(=C(c2ccccc2)N2CCOCC2)Cc2ccccc21 | 5.38 µM
CCn1c2ccccc2c2cc(/C=N/NC(=O)c3ccccc3)ccc21 | 1.52 µM
C=CCn1c(C)c(C(C)=O)c(N2CCN(C(c3ccccc3)c3ccccc3)CC2)nc1=S | > 19.5 µM (inactive)
C#CCN(C[C@@H]1[C@@H](OC(=O)NCC2CCCCC2)[C@@H](OC(=O)NCC2CCCCC2)Cn2c(=O)ccc(=O)n21)S(=O)(=O)c1ccc(C)cc1 | 3.84 µM
COc1ccccc1N(C(C)=O)C1=C(Cl)C(=O)c2ccccc2C1=O | 2.59 µM
CCN(CC)S(=O)(=O)c1ccc(N/N=C/c2ccc(O)cc2O)nc1 | 3.31 µM
Cc1cc(Sc2nnc(/N=C/N(C)C)s2)c2ccccc2n1 | 9.16 µM
Cc1c(C(=O)Nc2nc(-c3ccccn3)cs2)oc2ccccc12 | 11 µM
COc1ccc(-c2nnc(NC(=O)c3ccc(S(=O)(=O)N4CCCc5ccccc54)cc3)o2)cc1 | 15 µM
O=C(N/N=C/c1cc2c3c(c1O)CCCN3CCC2)c1ccccc1O | 3.05 µM
COc1ccc(C(NC(C)=O)c2cc(Cl)c3cccnc3c2O)cc1 (configuration not stated) | 6.92 µM
Clc1ccc(-n2nnnc2Sc2ncnc3sccc23)cc1 | 8.53 µM
CC(=O)c1ccc(-c2nc3c4ccccc4ccn3c2C(C)=O)o1 | 0.371 µM
c1ccc(C(=NNc2nc3ccccc3s2)c2ccccn2)cc1 | 1.06 µM
O=C(/C=C1\NC2(CCCC2)Cc2ccccc21)C(=O)N/N=C/c1ccccc1O | 18 µM
CCN(CC)c1ccc(/C=N/NC(=O)c2cnccn2)c(O)c1 | 3.23 µM
CC(=NNc1nc2ccccc2s1)c1ncccn1 | 10.2 µM
Oc1ccc2ccccc2c1N=Nc1ccccn1 | 4.54 µM
CCNc1ccc(Br)cc(C(=O)/C=C/c2ccccc2Cl)c1=O | 15.3 µM
Cc1ccc(CSc2nc3ccncc3[nH]2)cc1 | 19.5 µM
Cc1sc2ncnc(N/N=C/c3ccccc3O)c2c1C | 3.59 µM
C=CC(=O)OCCOCCOCCOCCOC(=O)C=C | 16.9 µM
Cc1cc(=O)[nH]c(NN=Cc2cc(Br)ccc2O)n1 | 3.92 µM
CC(=NNC(=S)Nc1ccccc1)c1ccccn1 | 0.068 µM

Compound | AC50
O=C(Nc1ccc(C(=O)N2CCOCC2)cc1)Nc1cccc(C(F)(F)F)c1 | > 19.5 µM (inactive)
COc1cccc(/C=N/Nc2ncnc3c2ncn3Cc2ccccc2)c1O | 2.21 µM
Oc1c(C(Nc2nc3ccccc3s2)c2ccco2)ccc2cccnc12 (configuration not stated) | 2 µM
CCc1cc(C(=O)Nc2ncccc2O)sc1C | > 19.5 µM (inactive)
COc1ccc(Cc2nnc(N/N=C/c3ccc(O)cc3)[nH]c2=O)cc1OC | 4.05 µM
CCn1c2ccccc2c2cc(/C=N/n3cnnc3)ccc21 | 10.7 µM
O=C(N/N=C/c1ccc[nH]1)c1ccc(COc2cccc3cccnc23)cc1 | 4.93 µM
CN(C)c1ccc(C=Cc2ccnc3c(O)cccc23)cc1 | 10.5 µM
COc1ccc(-c2nc(-c3cccs3)no2)cc1 | > 19.5 µM (inactive)
COc1cccc(/C=N/Nc2nccnc2Cl)c1O | 3.86 µM
O=C(Nc1nnc(SCc2ccc(F)cc2)s1)c1ccccn1 | 14.1 µM
CC(=O)NC(c1cccs1)c1cc(F)c2cccnc2c1O (configuration not stated) | 6.96 µM
CC(=NNC(=S)Nc1cccc(Cl)c1)c1ccccn1 | 0.138 µM
CC(=NNC(=S)N1CCCCC1)c1cccc(C)n1 | 2.37 µM
COc1ccccc1[C@]1(C)ON(c2ccccc2C(F)(F)F)C1=O | 16.7 µM
COc1ccc2[nH]c(C(=O)N/N=C/c3ccc(O)cc3O)cc2c1 | 16 µM
CCN(CC)S(=O)(=O)c1cc([N+](=O)[O-])ccc1NNC(=O)Nc1ccc(Cl)c(Cl)c1 | 20.2 µM
CCCC(=O)NC(c1cccc([N+](=O)[O-])c1)c1ccc2cccnc2c1O (configuration not stated) | 3.51 µM
CC(=O)NC(c1ccc(Cl)cc1Cl)c1ccc2cccnc2c1O (configuration not stated) | 1.56 µM
CCCCC(=O)NC(c1ccc(OC)c(OC)c1)c1ccc2cccnc2c1O (configuration not stated) | 5.63 µM
CCn1c2ccccc2c2cc(/C=N/n3c(-c4cc(C)[nH]n4)n[nH]c3=S)ccc21 | 6.59 µM
Nc1ccn([C@@H]2O[C@H](CO)[C@@H](O)C2O)c(=O)n1 (some centres not stated) | 1.1 µM
CN1CCN(/N=C/c2ccc(N(c3ccccc3)c3ccccc3)cc2)CC1 | 0.354 µM
O=C(Nc1ccc(N2CCOCC2)cc1)c1cn2ccccc2n1 | 10.9 µM

Compound | AC50
O=C(N/N=C/c1c(O)ccc2ccccc12)c1ccc(Br)o1 | 6.22 µM
CC(=NNc1nc2ccccc2o1)c1cc2ccccc2cn1 | 0.154 µM
CC(=NNC(=S)Nc1ccccc1Cl)c1ccccn1 | 0.055 µM
CCOC(=O)CC(NC(=O)C(Cc1ccc(N(CCCl)CCCl)cc1)NC(C)=O)C(=O)OCC (configuration not stated) | 5.68 µM
Cc1cc(Sc2nnc(N)s2)c2ccccc2n1 | 16.8 µM
O=C(c1ccccc1)C(CCC(CN1CCOCC1)C(=O)c1ccccc1)CN1CCOCC1 (configuration not stated) | 7.73 µM
O=c1c2c(nc3c(-c4cccc(Br)c4)c[nH]n13)CCCC2 | 11 µM
Cc1ccc2nc(-c3ccccn3)[nH]c2c1 | 19.5 µM
COc1ccc(C(=O)NC2CCCc3c2cnn3-c2cccc(C)c2C)c(OC)n1 (configuration not stated) | 1.22 µM
O=C(N/N=C/c1ccc(O)cc1O)c1ccc(CN2C(=O)c3cccc4cccc2c34)cc1 | 3.53 µM
CC(=NNC(=S)Nc1ccc(C)cc1)c1ccccn1 | 0.269 µM
O=[N+]([O-])c1ccc(O)c(/C=N/Nc2ncnc3c2cnn3-c2ccccc2)c1 | 4.55 µM
CCOC(=O)c1c(C)[nH]c(C(=O)N/N=C\c2ccccc2O)c1C | 6.7 µM
CCc1sc(C(=O)Nc2nc(-c3ccccn3)cs2)cc1C | 7.43 µM
O=[N+]([O-])c1c(Nc2cccc(O)c2)cc(Cl)c2nonc12 | 2.73 µM
CCn1c2ccccc2c2cc(/C=C(/C#N)C(N)=S)ccc21 | 0.998 µM
O=C(CF)N(O)c1ccc(C=Cc2ccccc2)cc1 | 4.21 µM
CCn1c2ccccc2c2cc(/C=N/n3cn[nH]c3=S)ccc21 | 3.79 µM
CCCN(CCC)S(=O)(=O)c1ccc(C(=O)Nc2nnc(-c3cc(OC)cc(OC)c3)o2)cc1 | > 19.5 µM (inactive)
O=C(NNC(=S)Nc1ccc(Cl)c(Cl)c1)c1ccccn1 | 1.5 µM
c1ccc(-c2cccc(-c3ccccn3)n2)nc1 | 1.69 µM
